# Active and inactive are the calls of the source.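 How the source made its calls: active means mean EC50 at or below 20 µM; inactive means the rest.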
# Tested on: CHO-XBP1 cells, IRE1-XBP1 luciferase reporter luminescence
# Test: IRE1-XBP1 adaptive UPR arm activators, SAR follow-up, CHO-XBP1 cells, luminescence (AID 540311)
row,Structure (SMILES),EC50
1,Cc1ccnc(Nc2ncccn2)n1,> 80 µM (inactive)
2,Cc1nc(Nc2nc(-c3ccccc3)cc(=O)[nH]2)nc2ccccc12,12.8 µM
3,Cc1ccnc(Nc2nc(-c3ccccc3)cc(=O)[nH]2)n1,> 80 µM (inactive)
4,Cc1nc(Nc2nccc(-c3ccccc3)n2)nc2ccccc12,> 80 µM (inactive)
5,Cc1cc(-c2ccccc2)nc(Nc2nc(C)c3ccccc3n2)n1,> 80 µM (inactive)
6,COc1cc(-c2ccccc2)nc(Nc2nc(C)c3ccccc3n2)n1,> 80 µM (inactive)
7,Cc1nc(Nc2ncccn2)nc2ccccc12,> 80 µM (inactive)
8,Cc1cc(=O)[nH]c(Nc2nc(C)c3ccccc3n2)n1,> 80 µM (inactive)
